Data taken from patent publication US12252478B2.
Several values for one entry are separate records, joined by “and”; a condition that tells them apart may be missing. Equal values may be shown once.

Experiments:
[1] = Solubility as a function of pH; assay type: physicochemical; settings: above pH 3
[2] = Hygroscopicity (water uptake); assay type: physicochemical
[3] = Intrinsic dissolution rate (VanKel instrument, Cary 100 photometer); assay type: physicochemical
Protocol: As measured on a VanKel instrument using a Cary 100 photometer, the intrinsic dissolution rate of Form A was determined in pH 4.5, pH 6.8 and 0.1 N HCl medium as follows:
As measured on a VanKel instrument using a Cary 100 photometer, the intrinsic dissolution rate of Form A was determined in pH 3.5, pH 4.5 and 0.1 N HCl medium as follows: […]

[4] = Thermodynamic stability of Forms A and B: heating and cooling cycles, transition temperatures
[5] = Equilibration in water depending on pH / form conversion; assay type: physicochemical
From the text: Forms A and B are enantiotropically related. […] Form B spontaneously transforms to Form A at ambient conditions. Form A can be converted to Modification HA, or Form HA, when equilibrated in water at pH 1.

[6] = heating/cooling rate 0.5° C./min
[7] = heating/cooling rate 10° C./min
[8] = heating/cooling rate 20° C./min
[9] = heating/cooling rate 40° C./min

For O=C(Nc1ccc(OC(F)(F)Cl)cc1)c1cnc(N2CC[C@@H](O)C2)c(-c2ccn[nH]2)c1 [Free Base form A], the solubility [1] was “rather low”, the water uptake ([2]; 25° C. up to 92% relative humidity) was “less than 0.1%” and the “Intrinsic DR value” ([3]; Acetate buffer pH 4.5) was “n.a (does not dissolve)”. For the same molecule, the “Intrinsic DR value” ([3]; HCL 0.1N) was 1.8 mg/min/cm2 and 1.9 mg/min/cm2 and the “Intrinsic DR value” ([3]; pH = 6.8) was “n.a (does not dissolve)”.
For Cl.O=C(Nc1ccc(OC(F)(F)Cl)cc1)c1cnc(N2CC[C@@H](O)C2)c(-c2ccn[nH]2)c1 [form A of HCl salt], the solubility [1] was “rather low”, the “transition A → B” value [4, 6] was 95.1 °C and the “transition A → B” value ([4]; heating/cooling rate 1° C./min) was 96.5 °C. The “transition A → B” value ([4]; heating/cooling rate 5° C./min) was 100.3 °C, the “transition A → B” value [4, 7] was 102.1 °C and the “transition A → B” value [4, 8] was 104.8 °C. The “transition A → B” value [4, 9] was 103.7 °C, the “behaviour when equilibrated in water” value ([5]; pH 1) was “converting into the trihydrate HA” and the “behaviour when equilibrated in water” value ([5]; pH>3.5) was “prone to disproportionate”. The water uptake ([2]; 25° C. up to 95% relative humidity) was “less than 0.4%”, the “Intrinsic DR value” ([3]; Acetate buffer pH 4.5) was 0.01 mg/min/cm2 and the “Intrinsic DR value” ([3]; Citrate buffer (pH 3.5)) was 0.02 mg/min/cm2. The “Intrinsic DR value” ([3]; HCL 0.01N (pH 2)) was 2.25 mg/min/cm2 and the “Intrinsic DR value” ([3]; HCL 0.1N (pH 1)) was 0.16 mg/min/cm2.
For Cl.O=C(Nc1ccc(OC(F)(F)Cl)cc1)c1cnc(N2CC[C@@H](O)C2)c(-c2ccn[nH]2)c1 [crystal form B of the hydrochloride salt], the “form stability at ambient conditions” value ([4]; ambient conditions) was “spontaneously transforms back into Form A”, the “transition B → A” value [4, 6] was 60.5 °C and the “transition B → A” value ([4]; heating/cooling rate 1° C./min) was 53.8 °C. For the same molecule, the “transition B → A” value ([4]; heating/cooling rate 5° C./min) was 38.5 °C, the “transition B → A” value [4, 7] was 37.5 °C and the “transition B → A” value [4, 8] was 34.7 °C. The “transition B → A” value [4, 9] was 32.2 °C and the decomposition observed ([4]; upon heating) was “above 240 °C”.
